Experimental data published in US7718781B2, “Hydroxypyridonate and hydroxypyrimidinone chelating agents” (The Regents of the University of California, priority 2001, dated 2010).
Values belong to the compound of their own block, whether it stands above or below them.

Experiments:
[1] = Gd(III) formation constants / pGd (spectrophotometric titration); format: physicochemical
Protocol: The term, “pGd,” as used herein is −log10[Gd^III]free at pH=7.4, and pre-equilibrium concentrations of [L]=10 μM, [Gd^III]=1 μM.
The Bjerrum method can be used for metal complex stability measurements (pH titrations of ligand and metal+ligand). Competition titrations with DTPA can be performed to determine the stability of very stable complexes where direct pH titration methods are inappropriate. Spectrophotometric techniques can be used to monitor metal-ligand complexation reactions, which give rise to changes in the Vis/UV spectra relative to the parent metal and ligand species. With digitally-recording automated spectrophotometeric titrators, factor analysis of the Vis/UV spectra readily determined the species in solution, their individual spectra and the equilibrium constants which interrelate them.
Data for the spectrophotometric determination of formation constants for the compounds of the invention (e.g., Tren-Me2-5,4-HOPY) with gadolinium are generally collected over a pH range of 2-8.
The formation constants are defined by eq 3:
The spectrophotometric data is refined using a model. […]
The pGd values are defined by eq 4: pGd=−log[Gd]free at pH 7.4 for [Gd]=1 μM, [L]=10 μM (4) A pM value can be calculated for many conditions, but it is generally preferable to calculate it for conditions relevant to biological considerations. […]

[2] = literature reports; cited from earlier work
[3] = Experimental determination of water solubility (UV-Vis of saturated solution); format: physicochemical
Protocol: To attain neutral pH, a 0.01 M solution of buffer (HEPES, pKa 7.55) in 0.1 M KCl was made in its acidic form and neutralized to pH 7 with KOH. A dilute solution (of the metal complex) of known concentration was prepared and the UV-Vis spectrum acquired. The extinction coefficient (ε) at the maximum absorbance (at wavelength typically 320-360 nm) was then calculated using Beer-Lambert's law. A saturated solution of the metal complex was then prepared and the UV-Vis spectrum acquired and the maximum absorbance (at wavelength typically 320-360 nm) recorded. In cases where the saturated solution produced extremely high absorbances, the saturated solution was diluted and then the spectrum recorded. Using the known ε, the concentration of the saturated solution was then determined. […] The spectra of the complexes at pH 7 are consistent with the known ML spectra observed from spectrophotometric solution thermodynamics studies of the metal-ligand complexation reactions and indicate the absence of free ligand (note: M=metal, L=ligand).
Typically, preliminary investigation of the minimum solubility of the complexes involves dissolving a known quantity of the complex in a precise volume of solvent. The visible disappearance of particulate matter, over time or instantaneous in some cases, is indicative of complete dissolution of the complex.

[4] = tested on: rat hepatocytes; details: cited from earlier work
[5] = cited from earlier work
[6] = free complex in water, in vitro; cited from earlier work
[7] = biological target: human serum albumin (HSA) (Homo sapiens, UniProt P02768); details: cited from earlier work
Sequence of human serum albumin (HSA) (P02768 25-609): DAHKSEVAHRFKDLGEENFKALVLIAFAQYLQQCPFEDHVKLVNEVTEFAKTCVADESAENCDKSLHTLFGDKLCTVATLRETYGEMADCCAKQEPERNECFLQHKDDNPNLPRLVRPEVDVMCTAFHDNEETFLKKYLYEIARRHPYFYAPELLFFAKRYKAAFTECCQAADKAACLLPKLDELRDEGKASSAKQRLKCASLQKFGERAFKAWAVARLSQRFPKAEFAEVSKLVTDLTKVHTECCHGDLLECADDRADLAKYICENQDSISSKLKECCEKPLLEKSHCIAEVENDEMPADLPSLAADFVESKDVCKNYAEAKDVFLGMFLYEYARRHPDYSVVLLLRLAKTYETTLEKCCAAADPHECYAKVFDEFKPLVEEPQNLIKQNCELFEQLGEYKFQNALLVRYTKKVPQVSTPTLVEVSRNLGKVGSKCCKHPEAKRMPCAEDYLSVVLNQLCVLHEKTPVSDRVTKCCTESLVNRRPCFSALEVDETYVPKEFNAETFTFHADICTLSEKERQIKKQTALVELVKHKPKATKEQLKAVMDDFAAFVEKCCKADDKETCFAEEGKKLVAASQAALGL

[8] = Ligand protonation constants (potentiometric titration); format: physicochemical
Protocol: The protonation constants for chelates of the invention are readily determined by potentiometric titrations. These constants are defined by eq 2:
As previously reported, (Turowski et al., Inorg. Chem., 27:474 (1988)) potentiometric titrations were performed using an automated apparatus consisting of a Accumet pH meter (models 925, 825MP or 15), a pH electrode (Orion Ross semi-micro combination, Cole Parmer semi-micro combination or Corning high performance combination electrodes), an autoburet (Metrohm 665 Dosimat or 702 SM Titrino) fitted with a 5 mL piston exchange unit and a jacketed Ar swept titration cell maintained at 25.0° C. by a Lauda K-2/R or Neslab RTE-111 constant temperature circulating bath. The electronic systems were integrated for automated collection with an IBM PC clone.
In this study, ligand and metal complex solutions were titrated from low to high pH and back again if possible. Titrations for the Zn/HOPY systems were not reversible, presumably due to the formation of mixed ML hydroxide complexes. […] Formation constants calculated from the potentiometric titration data were determined with the aid of a FORTRAN non-linear least-squares refinement program (BETA 90). […] Although this is a low concentration for potentiometric titrations, the buffer regions corresponding to the protonation steps are around neutral pH, and so could still be determined.

[9] = literature; cited from earlier work
[10] = tested on: mice; details: cited from earlier work
[11] = Water proton relaxivity (longitudinal relaxation rate, 20 MHz); format: physicochemical; details: 37° C.
Protocol: The efficacy of a paramagnetic complex as a possible MRI contrast agent depends on its ability to catalyze the nuclear magnetic relaxation rate of solvent protons (Lauffer, R. B., Chem. Rev., 87, 901 (1987); Tweedle, M. F.; Kumar, K. In Magnetic Resonance Imaging (MRI) Contrast Agents; Clarke, M. I., Sadler, P. J., Eds.; Springer: Berlin, Germany, Vol. 2, p. 1 (1999); Koenig et al., Prog. NMR Spectrosc., 22:487 (1990)). This property, which is measured in terms in relaxivity, r1p, is defined as the enhancement of the water proton longitudinal relaxation rate induced by a 1 mML^−1 solution of the paramagnetic compound at a given temperature and magnetic field strength (Aime et al., Chem. Soc. Rev., 27:19 (1998)).
In an exemplary assay, the longitudinal water proton relaxation rate at 20 MHz are measured (typically with a NMR spectrometer operating at 0.5 T) with a reproducibility of the T1 data to ±0.5%. Equipment for the control of temperature (with an accuracy of ±0.1° C.) during these measurements are employed.
Water proton relaxation measurements were carried out at 20 MHz with a Stelar Spinmaster Spectrometer (Mede, Pv, Italy) on 0.5-2 mM solutions of the Gd(III) complex. Spin-lattice relaxation times T1 were measured by the standard inversion recovery method with typical 90° pulse width of […], 16 experiments of 4 scans. The reproducibility of the data is ±1%. The temperature was controlled by a Stelar VTC-91 air-flow heater equipped with copper-constantan thermocouple (uncertainty ±0.1° C). The 1/T1 nuclear magnetic relaxation dispersion (NMRD) profiles of water protons were measured from 0.00024 to 1.2 T (corresponding to the range 0.01-50 MHz of proton Larmor frequencies) at 15, 25 and 39° C. using 1.5 mM solutions of the complex on the field-cycling Koenig-Brown relaxometer of the University of Torino (Italy). The temperature was controlled by circulating freon from an external bath and measured by a thermometer inserted into the freon close to the sample. The reproducibilities of the measured T1 values were estimated to be ±2%. […]

SMILES: Cn1ccc(C(=O)NCCN(CCNC(=O)c2ccn(C)c(=O)c2O)CCNC(=O)c2ccn(C)c(=O)c2O)c(O)c1=O [Formula 7, tris[(3-hydroxy-1-methyl-2-oxo-1,2-didehydropyridine-4-carboxamido)ethyl]amine]
pH range over which speciation in water is unchanged ([1]; calculated for 1 μM Gd and 10 μM ligand (FIG. 5)): 5.5-10
solubility in water of the Gd(III) complex [2]: about 0.1 mM
Water Solubility (pH 7, 25° C.) [3]: 0.1 mM

SMILES: O=C([O-])CN(CCN(CC(=O)[O-])CC(=O)[O-])CCN(CC(=O)[O-])C(COCc1ccccc1)C(=O)[O-].[Gd+3] (stereo not drawn) [Gd-BOPTA]
relaxivity in rat hepatocytes [4]: 30 mM⁻¹ s⁻¹
relaxivity in rat plasma [5]: 6.9 mM⁻¹ s⁻¹
relaxivity in water [6]: 4.4 mM⁻¹ s⁻¹

SMILES: O=C([O-])CN(CCN(CC(=O)[O-])C[C@H](COP(=O)([O-])OC1CCC(c2ccccc2)(c2ccccc2)CC1)N(CC(=O)[O-])CC(=O)[O-])CC(=O)[O-].[Gd+3].[H+].[H+].[H+] [MS-325]
relaxivity of the HSA adduct [7]: 42.0 mM⁻¹ s⁻¹
relaxivity in water [6]: 6.6 mM⁻¹ s⁻¹

pKa [8]: 6.37
SMILES: Cc1nc(C(=O)NCCN(CCNC(=O)c2nc(C)n(C)c(=O)c2O)CCNC(=O)c2nc(C)n(C)c(=O)c2O)c(O)c(=O)n1C [TREN-HOPY, Tris[(2,3-Dimethyl-5-hydroxy-6-carboxamido-4-pyrimidinone)ethyl]amine]

SMILES: Cn1ccc(C(=O)NCCN(CCNC(=O)c2ccn(C)c(=O)c2O)CCNC(=O)c2ccn(C)c(=O)c2O)c(O)c1=O [TREN-1-Me-HOPO, tris[(3-hydroxy-1-methyl-2-oxo-1,2-didehydropyridine-4-carboxamido)ethyl]amine]
number of coordinated water molecules (q) [9]: 2
toxicity to mice [10]: low toxicity
pGd ([1]; pH 7.4, [Gd]=1 μM, [L]=10 μM): 20.3
relaxivity (r1) [11]: 10.5 mM⁻¹ s⁻¹
relaxivity relative to [Gd(DTPA)(H2O)] [11]: ~2.5 times
pKa [8]: 6.12
